One assay has as its system P37 E⊕. Put plainly: IC 50 (Inhibitory Concentration at 50%), P37 E⊕. The note with it: Cutibacterium acnes, constant culture time, 50% of survivors. It is filed as cell-based, propionibacterium acnes. The source says: (§1) (2) at 1 cm beyond the periphery of the zone of inhibition strains called P37 E⊕ are retained.
(§2) This phenomeon is confirmed by the study of the IC 50 (Inhibitory Concentration at 50%) which represents the concentration of erythromycin where, at a constant culture time, 50% of survivors among the population are found.

The test system of the next assay is Staph. Epi. 6. As to the kind of experiment: MIC, Staph. Epi. 6 strain. Conditions: Staphylococcus epidermidis; strain isolated from a non-acne patient; read-out: minimal inhibitory concentrations, Staph. Epi. 6. It is filed as cell-based. The source says:
(§3) The activity of retinoic esters of antibiotics namely of erythromycin A, lincomycin and clindamycin has been studied by the dilution method, so as to determine, the minimal inhibitory concentration (MIC), this method being described and employed by G. A. Denys et al, "Antimicrobial Agents and Chemotherapy" 1983) 23, 335-337 and J. J. Leyden et al, J. Am. Acad. Dermatol. (1983), 8, (1) 41-5, by using as the strain of propionibacterium acnes, the P37 strain furnished by Cunliffe and Holland.
(§4) The "Staph. Epi. 3" strain is isolated from an acne patient whereas the "Staph. Epi. 6" strain is isolated from a non-acne patient. The isolation of these strains is carried out in accordance with the Williamson-Kligman method, ("A new method for the quantitative investigation of cutaneous bacteria", P. Williamson and A. Kligman, J. I. D., Vol. 45, No. 6, 1965). Decimal dilutions of the retained portions are effected and 0.1 ml of these dilutions is inoculated on a selective medium permitting isolation of staphylococcus.

For another assay, the system named is P37 E⊖. Put plainly: IC 50 (Inhibitory Concentration at 50%), P37 E⊖. It is filed as cell-based, propionibacterium acnes. The note with it: Cutibacterium acnes.
Text: (§5) (1) at the interior of the zone of inhibition strains called P37 E⊖ are retained because of their apparent resistance to erythromycin;
as §2

In a further assay the test system is P37 E⊖ (resistant). Put plainly: MIC by dilution method, P37 E⊖ (resistant) strain. The class given is cell-based, propionibacterium acnes. Conditions: for MIC: Cutibacterium acnes; for activity on resistant strains relative to the esters of the invention: P37 E⊖.
Text: as §3, §5
(§6) After isolation and culture, the P37 E⊕ and P37 E⊖ strains effectively show very different sensitivities to erythromycin as is illustrated by the following respective MIC values:
(§7) The Minimal Inhibitory Concentration (MIC) expressed in μg/ml of the tested retinoic esters of erythromycin A, lincomycin and clindamycin vis-a-vis the P37⊕ and P37⊖ strains is reported in the following tables

For the next assay, the system named is P37. As to the kind of experiment: IC 50 (Inhibitory Concentration at 50%), P37. It is filed as cell-based, propionibacterium acnes. The note with it: Cutibacterium acnes, constant culture time, 50% of survivors.
Text: as §2

The test system of another assay is P37 strain. As to the kind of experiment: zone of inhibition of growth around disk in Petri dish. The class given is cell-based, propionibacterium acnes. The note with it: Cutibacterium acnes, 144 h; 50 μg erythromycin in DMSO on 9 mm disk; 6 days at 36° C., anaerobic; after 8 sub-cultures; read-out: zone of inhibition of the growth of the strain, total diameter. How it is done:
On the other hand, after 8 successive sub-cultures in the same medium (RCM, Reinforced Clostridium Medium (oxoid) 19/20, DMSO […] by volume) so as to obtain a progressive stabilization of the strain to this medium, a progressive resistance to erythromycin is manifested in the following form.
After exposure of a standardized inoculum (DO=1.8 to […]) on gelose medium (RCM+ furazolidone) in a Petri dish, a 9 mm diameter disk is deposited at its center. On this disk, 50 μg of erythromycin (in solution in DMSO) are deposited.

A further assay has as its system P37 E⊕ (sensitive). As to the kind of experiment: MIC by dilution method, P37 E⊕ (sensitive) strain. It is filed as cell-based, propionibacterium acnes. The note with it: for MIC: Cutibacterium acnes; for activity on sensitive strains relative to the esters of the invention: P37 E⊕.
Text: as §3, §1, §6, §7

For the next assay, the system named is Staph. Epi. 3. As to the kind of experiment: MIC, Staph. Epi. 3 strain. The note with it: Staphylococcus epidermidis; strain isolated from an acne patient; read-out: minimal inhibitory concentrations, Staph. Epi. 3. The class given is cell-based.
Text: as §3, §4

Where [1] appears, read: read-out: Minimal Inhibitory Concentration (MIC), P37 E⊖ (resistant).
Setting [2] is: sensitive strain, retinoic ester table, read-out: Minimal Inhibitory Concentration (MIC), P37 E⊕ (sensitive).

Experimental findings from patent US5045533A, “Retinoic esters of antibiotics and pharmaceutical and cosmetic compositions containing them” (L'Oreal, priority 1986, dated 1991) are described below.

In brackets after ≈: the same amount, converted by molar mass. Read-outs that look alike come from different tables or passages of the source.

What is called IC50 is the point on the concentration scale where inhibition reaches its midpoint. A word on the zone of inhibition: it is the extent of the growth-free halo in a diffusion test. As to `CC[C@H]1OC(=O)[C@H](C)[C@@H](O[C@H]2C[C@@](C)(OC)[C@@H](O)[C@H](C)O2)[C@H](C)[C@@H](O[C@@H]2O[C@H](C)C[C@H](N(C)C)[C@H]2O)[C@](C)(O)C[C@@H](C)C(=O)[C@H](C)[C@@H](O)[C@]1(C)O` [Erythromycin A], the values for the IC50 in the assay on P37 E⊕, in the assay with P37 E⊖ and with P37 were 5 µg/mL (≈ 6.81 µM), 100 µg/mL (≈ 136 µM) and 50 µg/mL (≈ 68.1 µM), respectively. Besides, the MIC in the assay with Staph. Epi. 6 is 30 µg/mL (≈ 40.9 µM); with P37 E⊖ (resistant), 50 µg/mL (≈ 68.1 µM); in the assay with P37 E⊖ (resistant) (setting [1]), over 50 µg/mL; in the assay on P37 E⊕ (sensitive) (P37 E⊕ strain, strain characterisation table, read-out: MIC), 0.78 µg/mL (≈ 1.06 µM); in the assay with P37 E⊕ (sensitive) (setting [2]), 1 µg/mL (≈ 1.36 µM); in the assay on Staph. Epi. 3, 13 µg/mL (≈ 17.7 µM). Moreover, the zone of inhibition at 50 µg/disc in the assay with P37 strain was determined as 42 mm.

On to `CCC[C@@H]1C[C@@H](C(=O)N[C@@H]([C@H]2O[C@H](SC)[C@H](O)[C@@H](OC(=O)/C=C(C)/C=C/C=C(C)/C=C/C3=C(C)CCCC3(C)C)[C@H]2O)[C@H](C)Cl)N(C)C1` [O-retinoyl (all-trans)-3-clindamycin, O-retinoyl (all trans)-3-clindamycin], for which the MIC in the assay with P37 E⊖ (resistant) (setting [1]) was 50 µg/mL (≈ 70.7 µM); in the assay with P37 E⊕ (sensitive) (setting [2]), 18 µg/mL (≈ 25.4 µM).

Take `CCCCCCCC/C=C\CCCCCCCC(=O)O[C@H]1[C@@H](O)[C@@H]([C@H](NC(=O)[C@@H]2C[C@@H](CCC)CN2C)[C@@H](C)O)O[C@H](SC)[C@@H]1O` [O-oleoyl-3-lincomycin]: the MIC is 42 µg/mL (≈ 62.6 µM) in the assay with P37 E⊖ (resistant) (setting [1]) and 19 µg/mL (≈ 28.3 µM) in the assay on P37 E⊕ (sensitive) (setting [2]).

In the case of `CCCCCCCC/C=C\CCCCCCCC(=O)O[C@H]1[C@@H](O)[C@@H]([C@H](NC(=O)[C@@H]2C[C@@H](CCC)CN2C)[C@H](C)Cl)O[C@H](SC)[C@@H]1O` [O-oleoyl-3-clindomycin], the MIC is over 138 µg/mL in the assay with P37 E⊖ (resistant) (setting [1]) and 54 µg/mL (≈ 78.3 µM) in the assay with P37 E⊕ (sensitive) (setting [2]). For the same compound, the “activity on resistant strains relative to the esters of the invention” value in the assay with P37 E⊖ (resistant) is recorded as “clearly less active”. In addition, in the assay with P37 E⊕ (sensitive), the “activity on sensitive strains relative to the esters of the invention” value was “clearly less active”.

In the case of `CC[C@H]1OC(=O)[C@H](C)[C@@H](O[C@H]2C[C@@](C)(OC)[C@@H](O)[C@H](C)O2)[C@H](C)[C@@H](O[C@@H]2O[C@H](C)C[C@H](N(C)C)[C@H]2OC(=O)/C=C(C)/C=C/C=C(C)/C=C/C2=C(C)CCCC2(C)C)[C@](C)(O)C[C@@H](C)C(=O)[C@H](C)[C@@H](O)[C@]1(C)O` [O-retinoyl (all trans)-2'-erythromycin A], the MIC in the assay on Staph. Epi. 6 came out at 80 µg/mL (≈ 78.7 µM); with P37 E⊖ (resistant) (setting [1]), 13 µg/mL (≈ 12.8 µM); in the assay on P37 E⊕ (sensitive) (setting [2]), 14 µg/mL (≈ 13.8 µM); in the assay on Staph. Epi. 3, 75 µg/mL (≈ 73.8 µM).

Take `CC[C@H]1OC(=O)[C@H](C)[C@@H](O[C@H]2C[C@@](C)(OC)[C@@H](O)[C@H](C)O2)[C@H](C)[C@@H](O[C@@H]2O[C@H](C)C[C@H](N(C)C)[C@H]2OC(=O)\C=C(C)/C=C/C=C(C)/C=C/C2=C(C)CCCC2(C)C)[C@](C)(O)C[C@@H](C)C(=O)[C@H](C)[C@@H](O)[C@]1(C)O` [O-retinoyl (13-cis)-2'-erythromycin A]: the MIC with Staph. Epi. 6 amounted to 110 µg/mL (≈ 108 µM); in the assay with P37 E⊖ (resistant) (setting [1]) it was 34 µg/mL (≈ 33.5 µM); in the assay on P37 E⊕ (sensitive) (setting [2]) it was 20 µg/mL (≈ 19.7 µM); with Staph. Epi. 3, 110 µg/mL (≈ 108 µM).

For the compound `CCCCCCCC/C=C\CCCCCCCC(=O)O[C@H]1[C@H](O[C@@H]2[C@@H](C)[C@H](O[C@H]3C[C@@](C)(OC)[C@@H](O)[C@H](C)O3)[C@@H](C)C(=O)O[C@H](CC)[C@@](C)(O)[C@H](O)[C@@H](C)C(=O)[C@H](C)C[C@@]2(C)O)O[C@H](C)C[C@@H]1N(C)C` [O-oleoyl-2'-erythromycin A (Z-9)], the MIC in the assay with P37 E⊖ (resistant) (setting [1]) worked out at 100 µg/mL (≈ 100 µM); in the assay with P37 E⊕ (sensitive) (setting [2]) it was 50 µg/mL (≈ 50.1 µM). For the same compound, the “activity on resistant strains relative to the esters of the invention” value in the assay with P37 E⊖ (resistant) was “clearly less active”. Besides, the “activity on sensitive strains relative to the esters of the invention” value in the assay on P37 E⊕ (sensitive) is on record as “clearly less active”.

For the compound `CCC[C@@H]1C[C@@H](C(=O)N[C@@H]([C@H]2O[C@H](SC)[C@H](O)[C@@H](O)[C@H]2O)[C@H](C)Cl)N(C)C1` [Clindamycin], the MIC worked out at 8 µg/mL (≈ 18.8 µM) in the assay with Staph. Epi. 6, 10 µg/mL (≈ 23.5 µM) in the assay on P37 E⊖ (resistant) (setting [1]), 1 µg/mL (≈ 2.35 µM) in the assay with P37 E⊕ (sensitive) (setting [2]) and 7 µg/mL (≈ 16.5 µM) in the assay on Staph. Epi. 3.

For the compound `CCC[C@@H]1C[C@@H](C(=O)N[C@@H]([C@H]2O[C@H](SC)[C@H](O)[C@@H](O)[C@H]2O)[C@@H](C)O)N(C)C1` [Lincomycin], the MIC came to 20 µg/mL (≈ 49.2 µM) in the assay on Staph. Epi. 6, 66 µg/mL (≈ 162 µM) in the assay on P37 E⊖ (resistant) (setting [1]), 13 µg/mL (≈ 32 µM) in the assay on P37 E⊕ (sensitive) (setting [2]) and 14 µg/mL (≈ 34.4 µM) in the assay on Staph. Epi. 3.

For the compound `CCC[C@@H]1C[C@@H](C(=O)N[C@@H]([C@H]2O[C@H](SC)[C@H](O)[C@@H](OC(=O)\C=C(C)/C=C/C=C(C)/C=C/C3=C(C)CCCC3(C)C)[C@H]2O)[C@H](C)Cl)N(C)C1` [O-retinoyl (13-cis)-3-clindamycin], the MIC in the assay with Staph. Epi. 6 is 113 µg/mL (≈ 160 µM); with P37 E⊖ (resistant) (setting [1]), 35 µg/mL (≈ 49.5 µM); in the assay with P37 E⊕ (sensitive) (setting [2]), 1.5 µg/mL (≈ 2.12 µM); with Staph. Epi. 3, 113 µg/mL (≈ 160 µM).

For the compound `CCC[C@@H]1C[C@@H](C(=O)N[C@@H]([C@H]2O[C@H](SC)[C@H](O)[C@@H](OC(=O)\C=C(C)/C=C/C=C(C)/C=C/C3=C(C)CCCC3(C)C)[C@H]2O)[C@@H](C)O)N(C)C1` [O-retinoyl (13-cis)-3-lincomycin], the MIC came to 100 µg/mL (≈ 145 µM) with Staph. Epi. 6, 25 µg/mL (≈ 36.3 µM) in the assay with P37 E⊖ (resistant) (setting [1]), 17.5 µg/mL (≈ 25.4 µM) with P37 E⊕ (sensitive) (setting [2]) and 100 µg/mL (≈ 145 µM) in the assay with Staph. Epi. 3.
